Data from patent publication US20250114430A1, “MODIFIED PEPTIDOMIMETICS AND METHODS OF USE” (The University of North Carolina at Chapel Hill, priority 2021, published 2025).
Non-standard residues stand in square brackets, D forms with d. No end group written: not given here.

What was measured:
[1] = system: P. aeruginosa; assay: P. aeruginosa infection in WT mice, ELD607 versus comparators; format: in vivo; details: WT mice infected with P. aeruginosa
From the text: We then infected WT mice with P. aeruginosa and treated with ELD607, the Orai1 small molecule antagonist […], dexamethasone or scrambled ELD607.

[2] = system: P. aeruginosa; assay: P. aeruginosa growth in the presence of peptide; format: cell-based; details: in vitro
[3] = biological target: T1, human neutrophil elastase (Homo sapiens, UniProt P08246); format: in vitro ADME
T1 sequence (P08246 30-267): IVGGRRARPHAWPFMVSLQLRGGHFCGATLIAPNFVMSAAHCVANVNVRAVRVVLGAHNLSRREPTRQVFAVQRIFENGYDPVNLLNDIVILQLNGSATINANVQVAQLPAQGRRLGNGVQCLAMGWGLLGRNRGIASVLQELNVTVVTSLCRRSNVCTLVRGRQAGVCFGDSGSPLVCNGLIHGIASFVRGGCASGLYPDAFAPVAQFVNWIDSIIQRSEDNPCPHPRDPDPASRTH
Description: Peptides were exposed to NE over time, and the reaction was stopped by addition of sivelestat. HPLC was then performed in order to determine peptide stability. N=3-4 replicates per time point.
HEK293T cells were plated and incubated for 2 hours with Fluo-4 plus or minus ELD peptides, with fluorescent images taken every 30 seconds for 2-6 minutes at excitation/emission wavelengths of 488/530 nm. […] Candidate peptides ELD604, 607, 601, and 100 were tested for resistance against protease degradation, wherein the peptides were incubated with neutrophil elastase, treated with the elastase inhibitor sivelestat at various timepoints to halt ongoing reactions, and then analyzed by HPLC (FIG. 9).
Endogenous Orai1/store operated Ca^2+ influx have been extensively studied in HEK293T cells, so this cell type was used to understand ELD607-Orai1 interactions. […] Thapsigargin is a SERCA pump inhibitor that prevents uptake of cytosolic Ca^2+ into the endoplasmic reticulum. Thapsigargin is commonly used to stimulate Orai1/store operated Ca^2+ influx. […] Dynamic light scattering (DLS) was used to evaluate binding of ELD607 to peptides of Orai1 extracellular loops. […] Thus, it was concluded that ELD607 interacts with Orai1.

[4] = biological target: Orai1 (Homo sapiens, UniProt Q96D31); assay: Dose response of Ca^2+ influx (SOCE), Ca^2+ add back approach, HEK293T cells; format: cell-based; set-up: Endogenous Orai1/store operated Ca^2+ influx have been extensively studied in HEK293T cells; endogenous in cells; host or cells: HEK293T
Sequence of Orai1 (Q96D31 whole entry): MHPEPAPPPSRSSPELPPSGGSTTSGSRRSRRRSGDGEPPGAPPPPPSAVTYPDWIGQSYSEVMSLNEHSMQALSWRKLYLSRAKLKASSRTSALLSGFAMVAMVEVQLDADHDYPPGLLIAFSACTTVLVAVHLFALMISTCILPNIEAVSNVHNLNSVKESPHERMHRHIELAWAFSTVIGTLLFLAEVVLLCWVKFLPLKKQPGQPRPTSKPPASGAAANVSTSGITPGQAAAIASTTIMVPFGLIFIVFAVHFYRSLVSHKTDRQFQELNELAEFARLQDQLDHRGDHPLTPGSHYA
Description: HEK293T cells were cultured in 384 well plates. Cells were then exposed to vehicle or […] ELD607 for 1 h. 100 nM thapsigargin was then added followed by extracellular Ca^2+ to differentiate ER Ca^2+ release and SOCE. n=8-12 cultures per data point.
ELD607 requires Orai1 expression to inhibit Ca^2+ signaling. […] Using this approach, curves were fitted to the data and the 50% inhibitory concentrations (IC50S) were calculated.

[5] = system: HEK293T cells; assay: Cytoplasmic Ca^2+ (Fluo-4) in HEK293T cells incubated with ELD peptides; format: cell-based; details: 2 hours with Fluo-4 plus or minus peptide
[6] = system: SARS-CoV-2 S1 pseudovirus; format: cell-based

Compound	stability against neutrophil elastase [3]	cytoplasmic calcium levels as compared to a control scrambled peptide [5]	pseudovirus infection (% DsRed-positive cells) [6]	other results
Cc1nnsc1C(=O)Nc1ccc(-n2nc(C(F)(F)F)cc2C(F)(F)F)cc1 [YM-58453, reference compound]				neutrophilia, weight loss, bacterial infections and lung macrophage levels (these parameters) [1]: neither −58453, dexamethasone nor scrambled ELD607 had any significant effects
O=C(O)c1cn(C2CC2)c2cc(N3CCNCC3)c(F)cc2c1=O [ciproflaxin, reference compound]				P. aeruginosa growth [2]: fully inhibited bacterial growth
DITLVHDIVNMLIHGL [ELD100, DITLVHDIVNMLIHGL]	not neutrophil elastase resistant			IC50 ([4]; Ca^2+ influx, HEK293T, 100 nM thapsigargin, read-out: IC50 (Molar)): 37 nM; Bottom (%) ([4]; fitted curve bottom, text: maximal inhibitions): 57.03%
HDINMLIHG [ELD601, HDINMLIHG]	still degraded by elastase			
a-HDIVNMLIH-a ([dA]HDIVNMLIH[dA]) [ELD604]	significantly more stable	reduced cytoplasmic calcium levels	inhibited viral replication	
n-VHDIVNMLIHG-n (VHDIVNMLIHG-NH2; not fully specified; also: N-terminal amidation) [ELD621]		reduced cytoplasmic calcium levels	inhibited viral replication	
